The target in experiment [1] is SOS1:KRAS (G12C) interaction (Homo sapiens (Human), UniProt Q07889). In words: SOS1 KRas(G12C) FRET Assay. Particulars: 0.5 nM His10-SOS1 (res. 564-1049), 2.5 nM GST-KRAS G12C (res. 1-169), 2 hrs at RT. The class given is binding. The method, boiled down:
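GST-KRAS G12C (res. 1-169) at 2.5 nM and His10-SOS1 (res. 564-1049) at 0.5 nM, final, in PBS with 0.1% BSA, 5 mM MgCl2, 100 mM KF, 5 mM DTT and 0.5% DMSO. After 2 h at RT, FRET read at 665/615 nm and normalized to DMSO and no-SOS1 controls. IC50 by non-linear regression.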

The target of a further experiment is human SOS1 (Homo sapiens (Human), UniProt Q07889). In words: Surface Plasmon Resonance (SPR) SOS1 Binding Assay. To be noted: biotinylated SOS1 (res. 564-1049), Biacore 8K, 25° C., kinetic or steady state fit, 1:1 binding; read-out: hSOS1 KD. As for the experimental part:
Binding to SOS1 was measured using a SPR assay with purified recombinant human SOS1 substrate (res. 564-1049 with N-terminal Avi tag; purified and biotinylated based on Hillig, et al., Proc Natl Acad Sci USA (2019); 116(7):2551-2560). SPR measurements were performed on a Biacore 8K SPR instrument (GE Healthcare, Sweden). Assays were performed at 25° C. using Series S SA sensor chips pre-coated with streptavidin (GE Healthcare, Cat. BR100531). Biotinylated SOS1 diluted in sample buffer (20 mM Tris HCI, 150 mM NaCl, 1 mM DTT, 0.05% TWEEN 20, 1 mM MgCh, pH 8.0) was captured to one flow cell of the chip to about 3,000 resonance units (RU) using sample buffer supplemented with 5% DMSO as a running buffer. Serial dilutions of the assayed compounds in the running buffer at 100, 50 or 0.5 µM were injected for 60 s at a flow rate of 30 µL/min and association phases were recorded. Dissociation of the samples was monitored for 600 s. Data processing was performed using Biacore Insight Software (Biacore, GE Healthcare). Sensorgrams recorded on a SA flow cell without captured protein were subtracted from sensorgrams recorded on the SOS1 surface. Blank injections of running buffer were used for double referencing and solvent correction was applied to all sample sensorgrams to correct for buffer mismatches. KDS were estimated using a kinetic or steady state, where applicable, fitting model describing a reversible equilibrium with 1:1 binding between SOS1 and the compound.

The values below come from patent US20230348424A1, “HETEROCYCLIC COMPOUNDS AND METHODS OF USE” (Schrödinger, Inc., priority 2022, published 2023).

Chain of SOS1:KRAS (G12C) interaction (Q07889 564-1049, stated change not applied): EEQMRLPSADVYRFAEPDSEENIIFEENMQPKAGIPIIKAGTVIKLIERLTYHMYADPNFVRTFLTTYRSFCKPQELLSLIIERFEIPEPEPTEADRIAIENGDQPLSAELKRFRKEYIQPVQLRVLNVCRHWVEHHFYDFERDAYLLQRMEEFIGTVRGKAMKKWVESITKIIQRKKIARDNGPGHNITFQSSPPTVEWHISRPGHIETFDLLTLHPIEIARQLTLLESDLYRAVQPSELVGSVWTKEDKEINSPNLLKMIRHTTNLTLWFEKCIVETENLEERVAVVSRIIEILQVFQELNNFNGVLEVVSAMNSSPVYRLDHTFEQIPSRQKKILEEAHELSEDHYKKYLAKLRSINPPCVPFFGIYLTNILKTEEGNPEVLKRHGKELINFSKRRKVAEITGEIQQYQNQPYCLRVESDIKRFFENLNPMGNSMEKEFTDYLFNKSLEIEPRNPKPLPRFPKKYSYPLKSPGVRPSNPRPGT
Chain of human SOS1 (Q07889 564-1049): as the sequence (Q07889 564-1049, stated change not applied) above

In general, IC50 refers to the concentration that gives 50% inhibition. High values mean lower potency, low ones higher potency. One may read the Kd as the concentration at which binding is half-saturated. In experiment [1], `Cc1c([C@@H](C)NC(=O)c2cn(C3CCOCC3)c(=O)cc2N[C@H]2CC[C@H](O)C2)cccc1C(F)(F)F` [Example 13, 4-(((1S,3S)-3-hydroxycyclopentyl)amino)-N-((R)-1-(2-methyl-3-(trifluoromethyl)phenyl)ethyl)-6-oxo-1-(tetrahydro-2H-pyran-4-yl)-1,6-dihydropyridine-3-carboxamide] returned an IC50 of 155 nM. For the same molecule, at human SOS1, the equilibrium dissociation constant (Kd) amounted to 91 nM.

In experiment [1], `Cc1c([C@@H](C)NC(=O)c2cn(C3CCOCC3)c(=O)cc2N[C@@H]2CC[C@@H](O)C2)cccc1C(F)(F)F` [Example 14, 4-(((1R,3R)-3-hydroxycyclopentyl)amino)-N-((R)-1-(2-methyl-3-(trifluoromethyl)phenyl)ethyl)-6-oxo-1-(tetrahydro-2H-pyran-4-yl)-1,6-dihydropyridine-3-carboxamide] showed an IC50 of 225 nM. Moreover, on human SOS1, the Kd is 103 nM.

Regarding `Cc1c([C@@H](C)NC(=O)c2cn(C3CCOCC3)c(=O)cc2NC2CCN(CCF)CC2)cccc1C(F)(F)F` [Example 16, (R)-4-((1-(2-fluoroethyl)piperidin-4-yl)amino)-N-(1-(2-methyl-3-(trifluoromethyl)phenyl)ethyl)-6-oxo-1-(tetrahydro-2H-pyran-4-yl)-1,6-dihydropyridine-3-carboxamide], in experiment [1], the IC50 was found to be 29.4 nM. In addition, the Kd on human SOS1 was 23 nM.

On to `Cc1c([C@@H](C)NC(=O)c2cn(C3CCOCC3)c(=O)c(C#N)c2NC2CCN(C)CC2)cccc1C(F)(F)F` [Example 20, (R)-5-cyano-N-(1-(2-methyl-3-(trifluoromethyl)phenyl)ethyl)-4-((1-methylpiperidin-4-yl)amino)-6-oxo-1-(tetrahydro-2H-pyran-4-yl)-1,6-dihydropyridine-3-carboxamide], for which, in experiment [1], the IC50 came out at 22.7 nM. For the same molecule, the Kd on human SOS1 came to 10.4 nM.

In the case of `Cc1c([C@@H](C)NC(=O)c2cn(C3CCOCC3)c(=O)cc2NC2CC3(C2)CN(C)C3)cccc1C(F)(F)F` [Example 21, (R)-4-((2-methyl-2-azaspiro[3.3]heptan-6-yl)amino)-N-(1-(2-methyl-3-(trifluoromethyl)phenyl)ethyl)-6-oxo-1-(tetrahydro-2H-pyran-4-yl)-1,6-dihydropyridine-3-carboxamide], in experiment [1], the IC50 turned out to be 53.7 nM. Also, the Kd at human SOS1 was 17 nM.

In experiment [1], `Cc1c([C@@H](C)NC(=O)c2cn(C3CCOCC3)c(=O)cc2N[C@H]2[C@@H]3CN(C)C[C@@H]32)cccc1C(F)(F)F` [Example 26, N-((R)-1-(2-methyl-3-(trifluoromethyl)phenyl)ethyl)-4-(((1R,5S,6s)-3-methyl-3-azabicyclo[3.1.0]hexan-6-yl)amino)-6-oxo-1-(tetrahydro-2H-pyran-4-yl)-1,6-dihydropyridine-3-carboxamide] displayed an IC50 of 27.1 nM. For the same molecule, the dissociation constant Kd at human SOS1 worked out at 11 nM.

In experiment [1], `COC1(CNc2cc(=O)n(C3CCOCC3)cc2C(=O)N[C@H](C)c2cccc(C(F)(F)F)c2C)CN(C)C1` [Example 29, (R)-4-(((3-methoxy-1-methylazetidin-3-yl)methyl)amino)-N-(1-(2-methyl-3-(trifluoromethyl)phenyl)ethyl)-6-oxo-1-(tetrahydro-2H-pyran-4-yl)-1,6-dihydropyridine-3-carboxamide] registered an IC50 of 19.1 nM. In addition, at human SOS1, the Kd was 11 nM.

Turning to `Cc1c([C@@H](C)NC(=O)c2cn(C3CCOCC3)c(=O)cc2NC2CCOCC2)cccc1C(F)(F)F` [Example 42, (R)-N-(1-(2-methyl-3-(trifluoromethyl)phenyl)ethyl)-6-oxo-1-(tetrahydro-2H-pyran-4-yl)-4-((tetrahydro-2H-pyran-4-yl)amino)-1,6-dihydropyridine-3-carboxamide], the IC50 in experiment [1] was 553 nM. The Kd at human SOS1 is 186 nM.

`Cc1c([C@@H](C)NC(=O)c2cn(C3CCOCC3)c(=O)cc2NC2(C)CCN(C)CC2)cccc1C(F)(F)F` [Example 45, (R)-4-((1,4-dimethylpiperidin-4-yl)amino)-N-(1-(2-methyl-3-(trifluoromethyl)phenyl)ethyl)-6-oxo-1-(tetrahydro-2H-pyran-4-yl)-1,6-dihydropyridine-3-carboxamide]: the IC50 in experiment [1] turned out to be 37.9 nM. For the same molecule, the Kd at human SOS1 worked out at 21 nM.
